According to ChEMBL document CHEMBL4699602, “Stapled and Xenopus Glucagon-Like Peptide 1 (GLP-1)-Based Dual GLP-1/Gastrin Receptor Agonists with Improved Metabolic Benefits in Rodent Models of Obesity and Diabetes” (J Med Chem, 2020):
Active and inactive are the calls of the source. The rule behind the calls is not given here. *1 amine or outer side, *2 acyl side, *3 side chain or, on linkers, in order; H or OH if unused. Where a SMILES comes first, the peptide text is derived from it. Bridges are numbered along the chain shown (N, C = ends). [ ]: non-standard residue; d: D form. X5 = O=C(O)CCCCCCCCCCCCCCCCC(=O)NC(CCC(=O)NCCOCCOCC(=O)NCCOCCOCC(=O)NCCCCCCNC(=O)C(CCCCNC(=O)CCN1C(=O)CC([*:2])C1=O)NC(=O)CCN1C(=O)CC([*:1])C1=O)C(=O)O; X3 = O=C(O)CCCCCCCCCCCCCCCCC(=O)NC(CCC(=O)NCCOCCOCC(=O)NCCCCCCNC(=O)C(CCCCNC(=O)CCN1C(=O)CC([*:1])C1=O)NC(=O)CCN1C(=O)CC([*:2])C1=O)C(=O)O; sY = N[C@@H](Cc1ccc(OS(=O)(=O)O)cc1)C(=O)O; AEEA = NCCOCCOCC(=O)O; Aib = CC(C)(N)C(=O)O

Assays:
[1] = target: T1, Glucagon-like peptide 1 receptor (Homo sapiens, UniProt P43220); assay: Agonist activity at human GLP-1R expressed in HEK293 cells assessed as stimulation of cAMP accumulation incubated for 20 mins; assay type: functional, cell-based
T1 sequence (P43220 whole entry): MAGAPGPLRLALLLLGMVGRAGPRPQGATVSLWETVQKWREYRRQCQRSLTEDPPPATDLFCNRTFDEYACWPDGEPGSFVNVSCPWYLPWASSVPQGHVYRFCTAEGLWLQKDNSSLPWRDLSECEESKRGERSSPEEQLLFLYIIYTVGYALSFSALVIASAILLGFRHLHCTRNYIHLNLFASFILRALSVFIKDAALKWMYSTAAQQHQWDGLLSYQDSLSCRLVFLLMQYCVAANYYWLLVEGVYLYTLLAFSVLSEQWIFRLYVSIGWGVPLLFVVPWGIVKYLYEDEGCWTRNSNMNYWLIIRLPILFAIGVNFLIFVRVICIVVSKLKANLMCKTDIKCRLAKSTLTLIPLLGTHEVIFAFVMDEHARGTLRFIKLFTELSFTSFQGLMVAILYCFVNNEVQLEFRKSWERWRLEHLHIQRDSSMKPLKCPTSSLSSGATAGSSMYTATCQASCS

[2] = target: T2, Cholecystokinin receptor type A (Homo sapiens, UniProt P32238); assay: Agonist activity at human CCK-1R expressed in HEK293 cells assessed as stimulation of ERK phosphorylation incubated for 5 mins; assay type: cell-based
T2 sequence (P32238 whole entry): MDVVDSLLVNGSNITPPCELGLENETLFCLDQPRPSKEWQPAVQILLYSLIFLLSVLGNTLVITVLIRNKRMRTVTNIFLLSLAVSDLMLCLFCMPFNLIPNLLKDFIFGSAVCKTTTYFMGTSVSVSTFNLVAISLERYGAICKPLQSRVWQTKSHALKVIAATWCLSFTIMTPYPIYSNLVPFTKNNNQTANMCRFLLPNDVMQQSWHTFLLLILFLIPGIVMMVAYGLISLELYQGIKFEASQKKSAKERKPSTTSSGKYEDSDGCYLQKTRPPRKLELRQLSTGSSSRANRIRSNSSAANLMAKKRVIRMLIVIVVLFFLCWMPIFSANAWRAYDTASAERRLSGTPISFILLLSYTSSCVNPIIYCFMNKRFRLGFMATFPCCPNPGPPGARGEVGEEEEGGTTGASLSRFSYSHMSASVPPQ

[3] = target: T3, Gastrin/cholecystokinin type B receptor (Homo sapiens, UniProt P32239); assay: Agonist activity at human CCK-2R expressed in HEK293 cells assessed as stimulation of ERK phosphorylation incubated for 5 mins; assay type: cell-based
T3 sequence (P32239 whole entry): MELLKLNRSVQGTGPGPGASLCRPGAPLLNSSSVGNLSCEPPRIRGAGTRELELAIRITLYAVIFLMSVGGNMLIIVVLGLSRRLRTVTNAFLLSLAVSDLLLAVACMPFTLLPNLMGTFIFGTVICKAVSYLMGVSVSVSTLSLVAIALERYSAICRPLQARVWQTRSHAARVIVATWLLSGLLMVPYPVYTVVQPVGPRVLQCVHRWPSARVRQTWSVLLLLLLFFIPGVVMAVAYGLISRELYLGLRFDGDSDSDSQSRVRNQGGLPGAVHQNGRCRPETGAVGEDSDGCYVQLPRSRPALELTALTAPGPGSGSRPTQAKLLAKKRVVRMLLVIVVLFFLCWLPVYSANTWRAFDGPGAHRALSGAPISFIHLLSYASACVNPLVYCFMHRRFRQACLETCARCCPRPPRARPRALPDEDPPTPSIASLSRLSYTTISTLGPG

[4] = target: T1, Glucagon-like peptide 1 receptor; assay: Agonist activity at human GLP-1R expressed in HEK293 cells assessed as stimulation of cAMP accumulation incubated for 20 mins in presence of 0% HSA; assay type: functional, cell-based
[5] = target: T1, Glucagon-like peptide 1 receptor; assay: Agonist activity at human GLP-1R expressed in HEK293 cells assessed as stimulation of cAMP accumulation incubated for 20 mins in presence of 4.4% HSA; assay type: functional, cell-based
[6] = target: T1, Glucagon-like peptide 1 receptor; assay: Ratio of EC50 for agonist activity at human GLP-1R expressed in HEK293 cells in presence of 4.4% HSA to EC50 for agonist activity at human GLP-1R expressed in HEK293 cells in presence of 0% HSA; assay type: cell-based
[7] = target: serum albumin (Homo sapiens, UniProt P02768); assay: Binding affinity to human serum albumin in PBS pH 7.4 at 100 ug/mL incubated for 2 hrs by LC-MS/MS analysis relative to control; assay type: ADME; conditions: at 100 µg/mL, read-out: PB (converted)
serum albumin, sequence (P02768 whole entry): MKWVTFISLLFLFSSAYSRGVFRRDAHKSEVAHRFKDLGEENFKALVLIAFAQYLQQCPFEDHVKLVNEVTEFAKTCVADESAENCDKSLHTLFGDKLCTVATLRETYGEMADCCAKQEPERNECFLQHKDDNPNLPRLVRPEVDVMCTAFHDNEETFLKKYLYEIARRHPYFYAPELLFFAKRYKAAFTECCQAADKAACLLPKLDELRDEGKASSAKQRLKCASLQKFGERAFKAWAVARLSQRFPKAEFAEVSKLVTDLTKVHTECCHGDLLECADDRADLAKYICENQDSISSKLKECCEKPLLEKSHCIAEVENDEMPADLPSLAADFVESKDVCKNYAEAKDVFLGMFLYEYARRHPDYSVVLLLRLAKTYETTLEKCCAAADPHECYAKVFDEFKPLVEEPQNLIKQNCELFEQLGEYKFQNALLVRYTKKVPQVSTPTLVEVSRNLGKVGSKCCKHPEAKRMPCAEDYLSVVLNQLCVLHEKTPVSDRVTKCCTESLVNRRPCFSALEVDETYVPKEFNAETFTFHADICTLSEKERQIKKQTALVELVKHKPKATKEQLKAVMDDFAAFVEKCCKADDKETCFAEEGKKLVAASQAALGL

[8] = system: Mus musculus; assay: Hypoglycemic activity in non-fasted db/db mouse assessed as decrease in blood glucose concentration at 25 nmol/kg, sc by OGTT method; assay type: functional, organism-based
[9] = system: Mus musculus; assay: Hypoglycemic activity in non-fasted db/db mouse assessed as duration of time during which decrease in blood glucose concentration is observed at 25 nmol/kg, sc by OGTT method; assay type: functional
[10] = system: Mus musculus; assay: Reduction in body weight in C57BL/6 mouse model of diet induced obesity at 25 nmol/kg, sc dosed every 2 days for 1 week relative to control; assay type: functional; set-up: scale not given: the % may be the effect or the level left; conditions: time 1 weeks
[11] = system: Mus musculus; assay: Reduction in fasted hyperglycemia in C57BL/6 mouse model of diet induced obesity at 25 nmol/kg, sc dosed every 2 days for 1 week relative to control; assay type: functional, organism-based; conditions: time 1.0 weeks
[12] = system: Mus musculus; assay: Hypoglycemic activity in ICR mouse assessed as decrease in blood glucose concentration at 25 nmol/kg, ip dosed 15 mins before test and measured up to 120 mins by OGTT method; assay type: functional, organism-based

Molecule	EC50 [1] [nM]	EC50 [2] [nM]	EC50 [3] [nM]	EC50 [4] [nM]	EC50 [5] [nM]	Ratio EC50 [6]	fraction unbound at 2 h, 100 ug/mL [7]	Activity [8]	Time [9] [h]	Activity [10] [%]	Activity [11]	Activity [12]
CC[C@H](C)[C@H](NC(=O)[C@H](CC(C)C)NC(=O)[C@H](Cc1c[nH]c2ccccc12)NC(=O)[C@H](CCC(=O)O)NC(=O)[C@@H](NC(=O)[C@H](Cc1ccccc1)NC(=O)[C@@H]1CSC2CC(=O)N(CCC(=O)NC(C(=O)NCCCCCCNC(=O)COCCOCCNC(=O)CCC(NC(=O)CCCCCCCCCCCCCCCCC(=O)O)C(=O)O)CCCCNC(=O)CCN3C(=O)CC(SC[C@H](NC(=O)[C@H](Cc4ccc(O)cc4)NC(=O)[C@H](CCC(=O)O)NC(=O)[C@@H](NC(=O)[C@@H](NC(=O)[C@H](CC(=O)O)NC(=O)[C@H](CC(N)=O)NC(=O)[C@@H](NC(=O)[C@H](Cc4ccc(O)cc4)NC(=O)[C@@H](NC(=O)CNC(=O)[C@H](CCC(=O)O)NC(=O)C(C)(C)NC(=O)[C@@H](N)Cc4c[nH]cn4)[C@@H](C)O)[C@@H](C)O)C(C)C)[C@@H](C)O)C(=O)N[C@@H](CCC(=O)O)C(=O)N[C@@H](CCC(=O)O)C(=O)N[C@@H](CCC(=O)O)C(=O)N[C@@H](C)C(=O)N[C@@H](C)C(=O)N[C@@H](CCCCN)C(=O)N1)C3=O)C2=O)[C@@H](C)CC)C(=O)N[C@@H](CCCCN)C(=O)NCC(=O)N[C@@H](CCCCN)C(=O)NCCOCCOCC(=O)NCCOCCOCC(=O)N[C@@H](Cc1ccc(O)cc1)C(=O)NCC(=O)N[C@@H](Cc1c[nH]c2ccccc12)C(=O)N[C@@H](CC(C)C)C(=O)N[C@@H](CC(=O)O)C(=O)N[C@@H](Cc1ccccc1)C(N)=O (stereo partly drawn) (H-H[Aib]EGTYTNDVTEYCEEEAAKCFIEWLIKGK[AEEA][AEEA]YGWLDF-NH2; linker 14-21 via X3)	0.055	> 1000	15.2									
CC[C@H](C)[C@@H]1NC(=O)[C@H](CC(C)C)NC(=O)[C@H](Cc2c[nH]c3ccccc23)NC(=O)[C@H](CCC(=O)O)NC(=O)[C@H]([C@@H](C)CC)NC(=O)[C@H](Cc2ccccc2)NC(=O)[C@@H](NC(=O)[C@H](CCCCN)NC(=O)[C@H](C)NC(=O)[C@H](C)NC(=O)[C@H](CCC(=O)O)NC(=O)[C@H](CCC(=O)O)NC(=O)[C@H](CCC(=O)O)NC(=O)[C@H](CC(C)C)NC(=O)[C@H](Cc2ccc(O)cc2)NC(=O)[C@H](CCC(=O)O)NC(=O)[C@@H](NC(=O)[C@@H](NC(=O)[C@H](CC(=O)O)NC(=O)[C@H](CC(N)=O)NC(=O)[C@@H](NC(=O)[C@H](Cc2ccc(O)cc2)NC(=O)[C@@H](NC(=O)CNC(=O)[C@H](CCC(=O)O)NC(=O)C(C)(C)NC(=O)[C@@H](N)Cc2c[nH]cn2)[C@@H](C)O)[C@@H](C)O)C(C)C)[C@@H](C)O)CSC2CC(=O)N(CCC(=O)NCCCCC(C(=O)NCCCCCCNC(=O)COCCOCCNC(=O)CCC(NC(=O)CCCCCCCCCCCCCCCCC(=O)O)C(=O)O)NC(=O)CCN3C(=O)CC(SC[C@@H](C(=O)NCC(=O)N[C@@H](CCCCN)C(=O)NCCOCCOCC(=O)NCCOCCOCC(=O)N[C@@H](Cc4ccc(O)cc4)C(=O)NCC(=O)N[C@@H](Cc4c[nH]c5ccccc45)C(=O)N[C@@H](CC(C)C)C(=O)N[C@@H](CC(=O)O)C(=O)N[C@@H](Cc4ccccc4)C(N)=O)NC1=O)C3=O)C2=O (stereo partly drawn) (H-H[Aib]EGTYTNDVTEYLEEEAAKCFIEWLICGK[AEEA][AEEA]YGWLDF-NH2; linker 21-28 via X3)	0.061	> 1000	17.5									
CC[C@H](C)[C@H](NC(=O)[C@H](CC(C)C)NC(=O)[C@H](Cc1c[nH]c2ccccc12)NC(=O)[C@H](CCC(=O)O)NC(=O)[C@@H](NC(=O)[C@H](Cc1ccccc1)NC(=O)[C@@H]1CSC2CC(=O)N(CCC(=O)NC(C(=O)NCCCCCCNC(=O)COCCOCCNC(=O)COCCOCCNC(=O)CCC(NC(=O)CCCCCCCCCCCCCCCCC(=O)O)C(=O)O)CCCCNC(=O)CCN3C(=O)CC(SC[C@H](NC(=O)[C@H](Cc4ccc(O)cc4)NC(=O)[C@H](CCC(=O)O)NC(=O)[C@@H](NC(=O)[C@@H](NC(=O)[C@H](CC(=O)O)NC(=O)[C@H](CC(N)=O)NC(=O)[C@@H](NC(=O)[C@H](Cc4ccc(O)cc4)NC(=O)[C@@H](NC(=O)CNC(=O)[C@H](CCC(=O)O)NC(=O)C(C)(C)NC(=O)[C@@H](N)Cc4c[nH]cn4)[C@@H](C)O)[C@@H](C)O)C(C)C)[C@@H](C)O)C(=O)N[C@@H](CCC(=O)O)C(=O)N[C@@H](CCC(=O)O)C(=O)N[C@@H](CCC(=O)O)C(=O)N[C@@H](C)C(=O)N[C@@H](C)C(=O)N[C@@H](CCCCN)C(=O)N1)C3=O)C2=O)[C@@H](C)CC)C(=O)N[C@@H](CCCCN)C(=O)NCC(=O)N[C@@H](CCCCN)C(=O)N1CCC[C@H]1C(=O)N[C@@H](CO)C(=O)N[C@@H](CO)C(=O)NCC(=O)N[C@@H](C)C(=O)N1CCC[C@H]1C(=O)N1CCC[C@H]1C(=O)N1CCC[C@H]1C(=O)N[C@@H](CO)C(N)=O (stereo partly drawn) (HELM PEPTIDE1{H.[Aib].E.G.T.Y.T.N.D.V.T.E.Y.C.E.E.E.A.A.K.C.F.I.E.W.L.I.K.G.K.P.S.S.G.A.P.P.P.S.[am]}|CHEM1{[O=C(O)CCCCCCCCCCCCCCCCC(=O)NC(CCC(=O)NCCOCCOCC(=O)NCCOCCOCC(=O)NCCCCCCNC(=O)C(CCCCNC(=O)CCN1C(=O)CC([*:1])C1=O)NC(=O)CCN1C(=O)CC([*:2])C1=O)C(=O)O]}$PEPTIDE1,CHEM1,14:R3-1:R1|PEPTIDE1,CHEM1,21:R3-1:R2$$$V2.0)				0.025	2.7	108	0.047	Active	24	13.8	Active	
H-HGEGTYTNDVTEYLEEEAAKEFIEWLIKGKPSSGAPPPS-NH2	0.034	> 1000	> 1000									Active
H-H[Aib]EGTYTNDVTEYCEEEAAKCFIEWLIKGKPSSGAPPPS[AEEA][AEEA]YGWLDF-NH2 (cysteines drawn unpaired)	0.04	> 1000	8.3									
H-H[Aib]EGTYTNDVTEYCEEEAAKCFIEWLIKGKPSSGAPPPS[AEEA][AEEA][sY]GWMDF-NH2 (cysteines drawn unpaired)	0.038	> 1000	7.6									
H-H[Aib]EGTYTNDVTEYLEEEAAKCFIEWLICGKPSSGAPPPS[AEEA][AEEA]YGWLDF-NH2 (cysteines drawn unpaired)	0.048	> 1000	9.4									
H-H[Aib]EGTYTNDVTEYLEEEAAKCFIEWLICGKPSSGAPPPS[AEEA][AEEA][sY]GWMDF-NH2 (cysteines drawn unpaired)	0.059	> 1000	8.2									
H-H[Aib]EGTYTNDVTEYLEEEAAKCFIEWLICGKPSSGAPPSKKKKKK-NH2 (linker 21-28 via X5)				0.034	2.7	79.4	0.033	Active	24	10.6	Active	
